Assay results as given in US8536183B2, “3-pyridylcarbonyl-piperazinylsulfonyl derivatives” (Convergence Pharmaceuticals Limited, priority 2008, dated 2013).
Counter-ions that a name gives are not always drawn.

Target: T1, hCaV2.2 (Homo sapiens, UniProt Q00975)
T1 construct: expressed in transfected cells; plasmids pCIN5-hCaV2.2, pCIH-hCaV β3, pCIP-α2δ1
Test: hCaV2.2 assay, IonWorks planar array electrophysiology in stably transfected HEK293 cells
Format: cell-based
Settings: current elicited by the 1st depolarising pulse inhibited by 50%; HEK293 cells expressing human CaV2.2 alpha/beta3/alpha2delta1; read-out: mean pIC50 (tonic pIC50) (converted)
Protocol: Compounds of the invention may be tested for in vitro biological activity in the hCaV2.2 assay in accordance with the following studies:
Stable cell lines expressing the human CaV2.2 α (als) subunit, along with the human […] and α2δ1 auxiliary subunits were created following sequential transfection and selection of human embryonic kidney (HEK293) cells. HEK293 cells were cultured in Dulbecco's modified Eagles media/F12 media (Invitrogen, Cat #041-95750V) containing 10% foetal bovine serum, with added L-glutamine (2 mM; Invitrogen, Cat #25030-024) and non-essential amino acids (5%; Invitrogen, Cat #11140-035). Initially HEK293 cells were transfected with two plasmid vectors for expression of the hCaV2.2 α subunit (pCIN5-hCaV2.2 which carries a neomycin resistance marker) and the hCaV β3 subunit (pCIH-hCaV β3 which carries a hygromycin resistance marker). Clonal cell lines were isolated following selection in media supplemented with 0.4 mg ml^−1 Geneticin G418 (Invitrogen, Cat #10131-027) and 0.1 mg ml^1 hygromycin (Invitrogen, Cat #10687-010). These clonal cell lines were assessed for Cav2.2α/β3-mediated current expression using the IonWorks planar array electrophysiology technology (described below). A clonal line was identified that gave a reasonable level of functional Cav2.2α/β3 current expression. This cell line was transfected with a plasmid vector for expression of the human […] subunit (pCIP-α2δ1 which carries a puromycin resistance marker) and clonal cell lines isolated following selection in media containing 0.62 μg ml^−1 puromycin (Sigma, Cat #P-7255), in addition to 0.4 mg ml^−1 Geneticin G418 and 0.1 mg ml^−1 hygromycin. Several cell lines were identified that gave robust levels of Cav2.2α/β3/α2δ1-mediated current expression and one of these was selected for compound profiling. Expression of all three subunits within this cell line was continuously maintained by the inclusion of G418 (0.4 mg ml^−1), hygromycin (0.1 mg ml^−1) and puromycin (0.62 μg ml^−1). Cells were maintained at 37° C. in a humidified environment containing 5% CO2 in air. Cells were liberated from the T175 culture flasks for passage and harvesting using TrpLE (Invitrogen, Cat #12604-013).
Cells were grown to 30-60% confluence in T175 flasks and maintained at 30° C. for 24 hrs prior to recording. Cells were lifted by removing the growth media, washing with Ca^2+ free PBS (Invitrogen, Cat #14190-094) and incubating with 3 ml of warmed (37° C.) TrpLE (Invitrogen, Cat #12604-013) for 6 minutes. Lifted cells were suspended in 10 ml of extracellular buffer. Cell suspension was then placed into a 15 ml tube and centrifuged for 2 minutes at 700 rpm. After centrifugation, the supernatant was removed and the cell pellet was resuspended in 4.5 ml of extracellular solution.
Currents were recorded at room temperature (21-23° C.) using the IonWorks planar array electrophysiology technology (Molecular Devices Corp.). Stimulation protocols and data acquisition were carried out using a microcomputer (Dell Pentium 4). In order to determine planar electrode hole resistances (Rp), a 10 mV, 160 ms potential difference was applied across each hole. These measurements were performed before cell addition. After cell addition a seal test was performed prior to antibiotic (amphotericin) circulation to achieve intracellular access. Leak subtraction was conducted in all experiments by applying a 160 ms hyperpolarizing (10 mV) prepulse 200 ms before the test pulses to measure leak conductance. Test pulses stepping from the holding potential (VH) of −90 mV to +10 mV were applied for 20 ms and repeated 10 times at a frequency of 10 Hz. In all experiments, the test pulse protocol was performed in the absence (pre-read) and presence (post-read) of a compound. Pre- and post-reads were separated by a compound addition followed by a 3-3.5 min incubation.
The intracellular solution contained the following (in mM): K-gluconate 120, KCl 20 mM, MgCl2 5, EGTA 5, HEPES 10, adjusted to pH 7.3. […]

T1 sequence (Q00975 whole entry): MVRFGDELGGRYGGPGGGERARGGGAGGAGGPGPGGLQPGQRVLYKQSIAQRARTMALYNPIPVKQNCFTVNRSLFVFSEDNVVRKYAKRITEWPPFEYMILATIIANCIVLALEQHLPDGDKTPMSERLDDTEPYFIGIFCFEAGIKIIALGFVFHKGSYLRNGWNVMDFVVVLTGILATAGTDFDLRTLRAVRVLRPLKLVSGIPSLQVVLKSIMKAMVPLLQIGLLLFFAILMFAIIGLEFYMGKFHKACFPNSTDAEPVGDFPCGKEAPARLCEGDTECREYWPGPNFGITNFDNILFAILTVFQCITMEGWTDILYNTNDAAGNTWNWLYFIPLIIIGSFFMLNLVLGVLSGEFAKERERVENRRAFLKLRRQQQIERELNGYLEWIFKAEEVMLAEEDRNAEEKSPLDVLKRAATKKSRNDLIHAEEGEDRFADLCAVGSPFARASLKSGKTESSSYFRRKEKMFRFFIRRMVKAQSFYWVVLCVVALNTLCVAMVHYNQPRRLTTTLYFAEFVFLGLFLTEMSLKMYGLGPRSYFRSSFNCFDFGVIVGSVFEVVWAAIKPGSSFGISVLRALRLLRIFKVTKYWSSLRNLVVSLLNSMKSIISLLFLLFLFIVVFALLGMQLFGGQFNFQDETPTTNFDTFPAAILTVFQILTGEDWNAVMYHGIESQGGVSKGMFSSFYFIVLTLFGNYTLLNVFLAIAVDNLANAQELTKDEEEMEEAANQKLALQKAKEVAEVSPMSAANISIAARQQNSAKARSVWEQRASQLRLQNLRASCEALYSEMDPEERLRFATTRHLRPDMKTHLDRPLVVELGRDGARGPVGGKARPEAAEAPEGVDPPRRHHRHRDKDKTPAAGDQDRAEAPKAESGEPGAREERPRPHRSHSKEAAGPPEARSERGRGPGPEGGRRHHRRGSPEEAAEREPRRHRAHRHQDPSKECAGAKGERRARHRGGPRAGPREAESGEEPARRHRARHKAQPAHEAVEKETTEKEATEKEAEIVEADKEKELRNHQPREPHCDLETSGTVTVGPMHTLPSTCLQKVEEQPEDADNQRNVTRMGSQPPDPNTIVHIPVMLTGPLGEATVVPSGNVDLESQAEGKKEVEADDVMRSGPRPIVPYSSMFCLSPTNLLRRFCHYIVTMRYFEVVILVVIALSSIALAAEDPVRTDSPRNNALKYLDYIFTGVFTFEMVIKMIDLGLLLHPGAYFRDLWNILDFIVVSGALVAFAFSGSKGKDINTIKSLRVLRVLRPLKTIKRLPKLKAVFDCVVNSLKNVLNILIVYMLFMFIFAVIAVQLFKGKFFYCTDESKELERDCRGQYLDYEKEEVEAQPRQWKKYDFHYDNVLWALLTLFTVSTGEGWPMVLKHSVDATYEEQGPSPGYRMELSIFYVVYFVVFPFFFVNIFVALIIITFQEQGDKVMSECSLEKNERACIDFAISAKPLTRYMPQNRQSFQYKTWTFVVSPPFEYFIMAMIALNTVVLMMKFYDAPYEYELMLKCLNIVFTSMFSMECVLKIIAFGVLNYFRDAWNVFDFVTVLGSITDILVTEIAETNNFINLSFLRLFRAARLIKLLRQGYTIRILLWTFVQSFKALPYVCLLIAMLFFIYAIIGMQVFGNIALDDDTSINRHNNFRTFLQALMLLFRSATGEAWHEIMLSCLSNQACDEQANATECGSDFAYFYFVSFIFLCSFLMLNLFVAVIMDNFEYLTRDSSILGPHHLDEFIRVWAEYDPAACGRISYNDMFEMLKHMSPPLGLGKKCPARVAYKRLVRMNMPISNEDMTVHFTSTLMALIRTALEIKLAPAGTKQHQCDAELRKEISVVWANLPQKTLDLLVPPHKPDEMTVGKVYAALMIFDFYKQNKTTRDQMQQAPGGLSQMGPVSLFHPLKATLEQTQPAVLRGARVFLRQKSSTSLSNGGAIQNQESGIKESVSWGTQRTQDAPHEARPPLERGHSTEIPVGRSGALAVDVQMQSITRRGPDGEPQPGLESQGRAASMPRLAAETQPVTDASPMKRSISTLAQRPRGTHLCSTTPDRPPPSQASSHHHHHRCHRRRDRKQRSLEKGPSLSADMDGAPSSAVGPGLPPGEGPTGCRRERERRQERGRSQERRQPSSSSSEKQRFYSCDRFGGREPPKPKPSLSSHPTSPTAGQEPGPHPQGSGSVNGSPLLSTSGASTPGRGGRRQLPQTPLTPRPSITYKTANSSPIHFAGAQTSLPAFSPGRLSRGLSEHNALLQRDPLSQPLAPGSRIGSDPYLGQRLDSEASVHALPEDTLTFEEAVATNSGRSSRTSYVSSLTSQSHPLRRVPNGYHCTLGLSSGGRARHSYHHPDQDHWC

| IC50 [µM] | SMILES |
| --- | --- |
| ≥ 31.6 | Cc1ncccc1C(=O)N1CCN(S(=O)(=O)c2ccc(C(F)(F)F)cc2)[C@@H](C)C1 [Example 12, (2S)-2-Methyl-4-[(2-methyl-3-pyridinyl)carbonyl]-1-{[4-(trifluoromethyl)phenyl]sulfonyl}piperazine formic acid salt] |
| ≥ 10 | CNc1ccc(C(=O)N2CCN(S(=O)(=O)c3ccc(C(F)(F)F)cc3)C[C@@H]2C)cn1 [Example 44, Methyl-5-[((2S)-2-methyl-4-{[4-(trifluoromethyl)phenyl]sulfonyl}-1-piperazinyl)carbonyl]-2-pyridinamine hydrochloride] |
| ≥ 10 | CCN(CC)c1ccc(C(=O)N2CCN(S(=O)(=O)c3ccc(C(F)(F)F)cc3)CC2)cn1 [Example 56, N,N-diethyl-5-[(4-{[4-(trifluoromethyl)phenyl]sulfonyl}-1-piperazinyl)carbonyl]-2-pyridinamine] |
| ≥ 31.6 | Cc1cc(C#N)ccc1S(=O)(=O)N1CCN(C(=O)c2ccc(N(C)C)nc2)[C@@H](C)C1 [Example 71, 4-[((3S)-4-{[6-(dimethylamino)-3-pyridinyl]carbonyl}-3-methyl-1-piperazinyl)sulfonyl]-3-methylbenzonitrile] |
| ≥ 10 | Cc1nc(N2CCOCC2)ccc1C(=O)N1CCN(S(=O)(=O)c2ccc(C(F)(F)F)cc2)C[C@@H]1C [Example 34, 4-{6-Methyl-5-[((2S)-2-methyl-4-{[4-(trifluoromethyl)phenyl]sulfonyl}-1-piperazinyl)carbonyl]-2-pyridinyl}morpholine hydrochloride] |
| ≥ 31.6 | C[C@H]1CN(S(=O)(=O)c2ccc(C(F)(F)F)cc2)CCN1C(=O)c1ccc(C#N)nc1 [Example 13, 5-[((2S)-2-Methyl-4-{[4-(trifluoromethyl)phenyl]sulfonyl}-1-piperazinyl)carbonyl]-2-pyridinecarbonitrile] |
| ≥ 31.6 | Cc1nc(N2CCC2)ccc1C(=O)N1CCN(S(=O)(=O)c2ccc(C(F)(F)F)cc2)C[C@@H]1C [Example 39, (2S)-1-{[6-(1-Azetidinyl)-2-methyl-3-pyridinyl]carbonyl}-2-methyl-4-{[4-(trifluoromethyl)phenyl]sulfonyl}piperazine hydrochloride] |
| ≥ 31.6 | Cc1ccc(C(=O)N2CCN(S(=O)(=O)c3ccc(C(F)(F)F)cc3)[C@H](C)C2)cn1 [Example 9, (2R)-2-Methyl-4-[(6-methyl-3-pyridinyl)carbonyl]-1-{[4-(trifluoromethyl)phenyl]sulfonyl}piperazine formic acid salt] |
| ≥ 31.6 | COc1ccc(C(=O)N2CCN(S(=O)(=O)c3ccc(C(F)(F)F)cc3)C[C@@H]2C)cn1 [Example 14, (2S)-2-Methyl-1-{[6-(methyloxy)-3-pyridinyl]carbonyl}-4-{[4-(trifluoromethyl)phenyl]sulfonyl}piperazine] |
| ≥ 31.6 | Cc1ccc(C(=O)N2CCN(S(=O)(=O)c3ccc(C(F)(F)F)cc3)CC2)cn1 [Example 4, 1-[(6-Methyl-3-pyridinyl)carbonyl]-4-{[4-(trifluoromethyl)phenyl]sulfonyl}piperazine] |
| ≥ 31.6 | O=C(c1ccc(NC2CCOCC2)nc1)N1CCN(S(=O)(=O)c2ccc(C(F)(F)F)cc2)CC1 [Example 70, N-(tetrahydro-2H-pyran-4-yl)-5-[(4-{[4-(trifluoromethyl)phenyl]sulfon-yl}-1-piperazinyl)carbonyl]-2-pyridinamine] |
| ≥ 31.6 | Cc1cc(C#N)ccc1S(=O)(=O)N1CCN(C(=O)c2ccc(N3CCC3)nc2C)[C@@H](C)C1 [Example 40, 4-[((38)-4-{[6-(1-Azetidinyl)-2-methyl-3-pyridinyl]carbonyl}-3-methyl-1-piperazinyl)sulfonyl]-3-methylbenzonitrile hydrochloride] |
| ≥ 10 | Cc1ccc(C(F)(F)F)cc1S(=O)(=O)N1CCN(C(=O)c2cccnc2C)[C@@H](C)C1 [Example 60, (2S)-2-methyl-1-[(2-methyl-3-pyridinyl)carbonyl]-4-{[2-methyl-5-(trifluoromethyl)phenyl]sulfon-yl}piperazine] |
| ≥ 31.6 | Cc1ncccc1C(=O)N1CCN(S(=O)(=O)c2ccc(C(F)(F)F)cc2)[C@H](C)C1 [Example 10, (2R)-2-Methyl-4-[(2-methyl-3-pyridinyl)carbonyl]-1-{[4-(trifluoromethyl)phenyl]sulfonyl}piperazine formic acid salt] |
| ≥ 31.6 | Cc1ccc(C(=O)N2CCN(S(=O)(=O)c3ccc(C(F)(F)F)cc3)[C@@H](C)C2)cn1 [Example 11, (2S)-2-Methyl-4-[(6-methyl-3-pyridinyl)carbonyl]-1-{[4-(trifluoromethyl)phenyl]sulfonyl}piperazine formic acid salt] |
| ≥ 31.6 | Cc1ccncc1C(=O)N1CCN(S(=O)(=O)c2ccc(C(F)(F)F)cc2)C[C@@H]1C [Example 18, (2S)-2-Methyl-1-[(4-methyl-3-pyridinyl)carbonyl]-4-{[4-(trifluoromethyl)phenyl]sulfonyl}piperazine] |
| ≥ 31.6 | Cc1ncccc1C(=O)N1CCN(S(=O)(=O)c2ccc(OC(F)(F)F)cc2)C[C@H]1C [Example 58, (2R)-2-methyl-1-[(2-methyl-3-pyridinyl)carbonyl]-4-({4-[(trifluoromethyl)oxy]phenyl}sulfonyl)piperazine] |
| ≥ 31.6 | Cc1ncccc1C(=O)N1CCN(S(=O)(=O)c2ccc(C(F)(F)F)cc2)C[C@@H]1C [Example 2, (2S)-2-Methyl-1-[(2-methyl-3-pyridinyl)carbonyl]-4-{[4-(trifluoromethyl)phenyl]sulfonyl}piperazine hydrochloride] |
| ≥ 31.6 | Cc1ccc(C(=O)N2CCN(S(=O)(=O)c3ccc(C#N)cc3C)C[C@H]2C)cn1 [Example 63, 3-methyl-4-({(3R)-3-methyl-4-[(6-methyl-3-pyridinyl)carbonyl]-1-piperazinyl}sulfonyl)benzo-nitrile] |
| ≥ 31.6 | C[C@H]1CN(C(=O)c2ccc(N3CCOCC3)nc2)CCN1S(=O)(=O)c1ccc(Cl)cc1 [Example 7, 4-[5-({(3S)-4-[(4-Chlorophenyl)sulfonyl]-3-methyl-1-piperazinyl}carbonyl)-2-pyridinyl]morpholine] |
| ≥ 31.6 | O=C(c1cccnc1)N1CCN(S(=O)(=O)c2ccc(C(F)(F)F)cc2)CC1 [Example 3, 1-(3-Pyridinylcarbonyl)-4-{[4-(trifluoromethyl)phenyl]sulfonyl}piperazine] |
| ≥ 31.6 | Cc1ccc(C(=O)N2CCN(S(=O)(=O)c3ccc(C(F)(F)F)cc3)C[C@@H]2C)cn1 [Example 1, (2S)-2-Methyl-1-[(6-methyl-3-pyridinyl)carbonyl]-4-{[4-(trifluoromethyl)phenyl]sulfonyl}piperazine] |
| ≥ 31.6 | Cc1ccc(C(=O)N2CCN(S(=O)(=O)c3cc(C(F)(F)F)ccc3C)CC2)cn1 [Example 61, 1-[(6-methyl-3-pyridinyl)carbonyl]-4-{[2-methyl-5-(trifluoromethyl)phenyl]sulfon-yl}piperazine] |
| ≥ 10 | Cc1cc(C#N)ccc1S(=O)(=O)N1CCN(C(=O)c2ccc(N3CCOCC3)nc2C)[C@@H](C)C1 [Example 35, 3-Methyl-4-[((3S)-3-methyl-4-{[2-methyl-6-(4-morpholinyl)-3-pyridinyl]carbonyl}-1-piperazinyl)sulfonyl]benzonitrile hydrochloride] |
| ≥ 31.6 | Cc1ncccc1C(=O)N1CCN(S(=O)(=O)c2ccc(C(F)(F)F)cc2)CC1 [Example 5, 1-[(2-Methyl-3-pyridinyl)carbonyl]-4-{[4-(trifluoromethyl)phenyl]sulfonyl}piperazine] |
